US20170115276A1, “SPECIFIC MODULATORS OF CONNEXIN HEMICHANNELS” (PONTIFICIA UNIVERSIDAD CATÓLICA DE CHILE, priority 2014, published 2017)

Experiments:
[1] = target: T1, gap junction channels formed by connexin 43 (Mus musculus, UniProt P23242); test: Cellular coupling assessed with the transfer of ethidium in HeLa-Cx43 cells; type: cell-based; settings: for effect on gap junction channels (in words): connexin isoform and concentration not stated
T1 construct: expressed in transfected cells; host or cells: HeLa
T1 sequence (P23242 whole entry, canonical isoform): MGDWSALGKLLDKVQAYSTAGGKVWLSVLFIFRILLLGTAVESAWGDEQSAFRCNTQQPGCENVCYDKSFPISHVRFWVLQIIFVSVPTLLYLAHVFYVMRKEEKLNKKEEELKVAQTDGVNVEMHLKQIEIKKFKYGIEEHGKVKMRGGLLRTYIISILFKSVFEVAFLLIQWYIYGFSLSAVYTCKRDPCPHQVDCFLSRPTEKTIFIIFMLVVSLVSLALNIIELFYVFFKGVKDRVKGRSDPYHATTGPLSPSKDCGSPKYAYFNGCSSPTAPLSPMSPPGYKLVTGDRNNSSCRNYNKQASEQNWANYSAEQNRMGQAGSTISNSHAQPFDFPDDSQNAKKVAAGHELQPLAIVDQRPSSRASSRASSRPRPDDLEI
Method: FIG. 6. Cellular coupling assessed with the transfer of ethidium. A. Effect of the different inhibitors in HeLa-Cx43 cells (transfected with connexin 43). B. Cellular coupling index.
(§1) The molecules that inhibit the hemichannels formed by connexins are evaluated by their action on the hemichannels formed by panexine 1. The molecules inhibiting the hemichannels formed by connexins in the nanomolar range are studied as possible inhibitors of intercellular binding channels using the coupling technique to dyes and through electrophysiology using double fixing of voltage.

[2] = test system: hemichannels formed by connexins (26 or 43); test: In vitro test of blocking the opening/activation of hemichannels; permeability tracer (ethidium) uptake in transfected HeLa cells; type: cell-based, Mouse; settings: for % Inhibition Hemichannel activity (Cx26 o 43): inhibition of the permeability tracer at a concentration of 5 μM, HeLa cells transfected with connexins 26 or 43
Method: The compounds are tested in experiments based on cells that are deficient in the expression of hemichannels and transfected with different connexins in order to evaluate and/or confirm their capacity of modulating the transport through the cellular membrane. The transport of permeability tracing molecules is evaluated and compared with the inhibitors of channels formed by connexins known, such as beta glycyrrhetinic acid (BGA) and carbenoxolone (CBX).
(§2) The cells are incubated in an extracellular medium without divalent cations in order to increase the opening probability of hemichannels formed by connexins. In addition, as negative control parental cells not expressing hemichannels and cells transfected with panexine 1 and mechanically stimulated to induce the opening of the hemichannels formed by panexine 1.
In vitro test of blocking the opening/activation of hemichannels formed by connexins (26 or 43).
The capacity of the different tracing molecules was tested in vitro to evaluate the capacity of the compounds of reducing the transport of these molecules using the HeLa cells transfected with connexins 26 or 43.
(§3) […] HeLa cells transfected with connexins 26 or 43 are used. In order to evaluate the activity of each compound over the connexin hemichannels, 10^3 HeLa cells transfected with connexins are shown by well in multi-well ([…]) plates 24 h before each experiment. Then, the cells are washed in a Locke solution that contains normal levels of divalent cations (Ca^2+ and Mg^2+) or a cation-free divalent Locke solution that contains 5 μm of ethidium bromide. Parallel to this, the cells are treated with different concentrations of each candidate compound and incubated for 5 min.
(§4) As indicated by the scheme of FIG. 2, the HeLa cells transfected with connexin 43 (Cx43) are shown in multi-well (96) plates and after 24 h the ethidium uptake is evaluated in the presence of cation free solution (DCFS) in the presence or absence of the compound in question. The ethidium uptake is evaluated as the fluorescence emitted measured with a fluorometer. If the value of fluorescence in the presence of the inhibitor is equal or close to that measured in cells bathed with a solution that contains divalent cations, the compound corresponds to an inhibitor of hemichannels formed by connexins. On the contrary, if the fluorescence value emitted by cells exposed to a possible inhibitor in DCFS is equal to that of cells bathed only with DCFS (without the compound in question), the compound is not an inhibitor of hemichannels formed by connexins. The same test is performed with different concentrations of each compound in order to determine the minimum effective concentration (EC50).

[3] = target: T2, hemichannels formed by panexine 1 (Panx1) (Homo sapiens, UniProt Q96RD7); test: Functional status of panexine 1 hemichannels activated by mechanic stress; type: cell-based; settings: for effect on hemichannels formed by panexines (in words): concentration not given
T2 construct: expressed in transfected cells
T2 sequence (Q96RD7 whole entry, species assumed): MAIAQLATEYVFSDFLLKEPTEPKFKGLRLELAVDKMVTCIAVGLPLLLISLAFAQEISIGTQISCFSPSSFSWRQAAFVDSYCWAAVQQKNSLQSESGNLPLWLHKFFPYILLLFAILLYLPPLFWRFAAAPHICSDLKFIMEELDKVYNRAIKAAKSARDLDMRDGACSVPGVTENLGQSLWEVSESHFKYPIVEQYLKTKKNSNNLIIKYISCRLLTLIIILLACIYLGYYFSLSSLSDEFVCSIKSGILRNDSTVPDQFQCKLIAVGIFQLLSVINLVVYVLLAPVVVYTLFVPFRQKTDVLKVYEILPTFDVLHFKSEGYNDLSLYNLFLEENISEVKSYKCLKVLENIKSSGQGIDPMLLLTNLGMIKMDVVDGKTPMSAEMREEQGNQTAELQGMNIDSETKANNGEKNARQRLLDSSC
Method: FIG. 7. Functional status of the hemichannels formed by panexine1 (Panx1) driven by mechanic stress.
as §2
Therefore, the compound is an inhibitor of hemichannels formed by highly specific conexins.

[4] = target: T3, hemichannels formed by connexin 43 (Mus musculus, UniProt P23242); test: Ethidium uptake in HeLa Cx43-EGFP cells induced by divalent cation free solution (DCFS); type: cell-based; settings: for ethidium uptake speed or rate by minute (dye uptake) induced by DCFS: 10 nM
T3 construct: expressed in transfected cells; host or cells: HeLa
T3 sequence (P23242 whole entry): as the sequence (P23242 whole entry, canonical isoform) above
Method: FIG. 3. Ethidium uptake in HeLa Cx43-EGFP. Effect of DCFS. A: Cells in culture. B: Ethidium uptake chart in HeLa Cx43-EGFP. C: extracelular DCSF induces the inlet of ethidium in Cx43; the effect of DCSF is shown, which was blocked by the inhibiting molecule (MX) (10 nM), (P<0.05, n=4).
as §3
as §4, with “The same test is performed with different concentrations of each compound in order to determine the minimum effective concentration (EC50).” left out
In FIG. 3, the upper left panel (A) corresponds to a phase microphotograph, where the HeLa cells can be noted that express connexin 43 conjugated with green fluorescent protein (EGFP) present in the microscopic field. […] Clearly, the inhibiting molecule inhibits the activity of hemichannels evaluated as dye uptake.

[5] = target: T4, gap junction channels formed by connexin 26 (Mus musculus, UniProt Q00977); test: Incidence of cellular coupling evaluated with microinjections of Lucifer yellow; type: cell-based; settings: 1 nM; Lucifer yellow microinjection
T4 construct: expressed in transfected cells; host or cells: HeLa
Method: FIG. 5. Incidence percentage of coupling according to the time.
as §1
FIG. 5 depicts that the cells transfected with connexin 26 are very well coupled to gap junction channels. The incidence of the cellular coupling evaluated with microinjections of Lucifer yellow is close to 100% (black boxes).

[6] = target: T3, hemichannels formed by connexin 43; test: Unit currents of hemichannels in HeLa cells bathed in saline solution without Ca2+; type: cell-based; settings: 10 nM
Excerpt: FIG. 4. Unit streams of the hemichannels formed by connexin 43 in HeLa cells bathed in saline solution without calcium ion (or Ca^2+) and in the presence of EGTA.
Should the molecules not inhibit the intercellular channels formed by connexins in the millimolar range and not affect the hemichannels formed by panexine 1, its inhibiting effect of currents of hemichannels formed by connexins using the voltage fixing methodology in the modality of full cell.
The unit currents of the hemichannels formed by connexin 43 are very frequent in the HeLa cells bathed with a saline solution without the calcium ion (or Ca^2+) (see FIG. 4, the two upper tracings).

[7] = in vitro hemichannel blocking, connexins 26 or 43

O=C(O[C@@H](C(=O)c1ccc(Cl)cc1)c1ccccc1)c1ccc2ccccc2n1 [Example 1 (A), (R)-2-(4-chlorofenil)-2-oxo-1-fenilethylquinoline-2-carboxylate]
effect on gap junction channels (in words) [1]: do not affect
inhibition of hemichannels formed by connexins (in words) [2]: potent inhibitors
% Inhibition Hemichannel activity (Cx26 o 43) [2]: 0%
effect on hemichannels formed by panexines (in words) [3]: do not affect

Clc1ccc(N2CCN(CCCN3CCN(c4ccc(Cl)cc4)CC3)CC2)cc1 [Example 2 (B), 1,3-bis(4-(4-chlorofenil)piperazin-1-il)propane]
% Inhibition Hemichannel activity (Cx26 o 43) [2]: 20%

O=C(O)C(Oc1ccc(-c2ccccc2)cc1)Oc1ccc(-c2ccccc2)cc1 [Example 3 (C), Acetic 2,2-bis([1,1′-bifenil]-4-iloxi) acid]
% Inhibition Hemichannel activity (Cx26 o 43) [2]: 0%

C[C@]12C[C@@H](F)C(=O)C[C@@H]1CC[C@@H]1[C@@H]2CC[C@]2(C)[C@@H](OC(=O)c3ccccc3)CC[C@@H]12 [Example 4 (D), (2R,5S,8R,9S,10S,13S,14S,17S)-2-fluoro-10,13-dimethyl-3-oxohexadecahydro-1H-ciclopenta[a]fenantren-17-il benzoate]
effect on gap junction channels (in words) [1]: do not affect
inhibition of hemichannels formed by connexins (in words) [2]: potent inhibitors
IC50 [2, 7]: 20 nM
efficacy [2, 7]: 100%
% Inhibition Hemichannel activity (Cx26 o 43) [2]: 100%
effect on hemichannels formed by panexines (in words) [3]: do not affect

CC(=O)O[C@H]1CC[C@@]2(C)[C@@H](CC[C@@H]3[C@@H]2CC[C@]2(C)[C@@H](OC(=O)C4CCCCC4)CC[C@@H]32)C1 [Example 5 (E), (3S,5S,8R,9S,10S,13S,14S,17S)-3-acetoxi-10,13-dimethylhexadecahydro-1H-ciclopenta[a]fenantren-17-il ciclohexanocarboxilate]
efficacy [2, 7]: 100%
% Inhibition Hemichannel activity (Cx26 o 43) [2]: 100%

C#C[C@]1(O)CC[C@H]2[C@@H]3CC=C4C[C@@H](OC(=O)CCC5CCCCC5)CC[C@]4(C)[C@H]3CC[C@@]21C [Example 6 (F), (3S,8R,9S,10R,13S,14S,17R)-17-ethynil-17-hydroxi-10,13-dimethyl-2,3,4,7,8,9,10,11,12,13,14,15,16,17-tetradecahydro-1H-ciclopenta[a]fenantren-3-yl 3-ciclohexilpropanoate]
% Inhibition Hemichannel activity (Cx26 o 43) [2]: 0%

Cc1cc(N2CCOCC2)nc2ccc(Cc3ccc4nc(N5CCOCC5)cc(C)c4c3)cc12 [Example 7 (G), bis(4-methyl-2-morfolinquinoline-6-yl)methane]
% Inhibition Hemichannel activity (Cx26 o 43) [2]: 0%

CC1(C)[C@@H](OC(=O)CCC(=O)O)CC[C@]2(C)[C@H]3C(=O)C=C4[C@@H]5C[C@@](C)(C(=O)O)CC[C@]5(C)CC[C@@]4(C)[C@]3(C)CC[C@@H]12 [carbenoxolone, reference compound]
functional status of Panx1 hemichannels activated by mechanic stress ([3]; 5 μm): totally blocked

O=C(O[C@@H](C(=O)c1ccc(Cl)cc1)c1ccccc1)c1ccc2ccccc2n1 [compound 4, (R)-2-(4-chlorofenil)-2-oxo-1-fenilethlyquinoline-2-caroxilate]
cellular coupling mediated with gap junction channels formed by connexin 43 ([1]; 1 nM, ethidium transfer, HeLa-Cx43): does not inhibit
ethidium uptake speed or rate by minute (dye uptake) induced by DCFS [4]: completely inhibited
ethidium uptake speed or rate by minute (dye uptake) induced by DCFS ([4]; listed as MX): blocked
reversal of the inhibition with the washing of DCFS ([4]; after 10 nM): partially reversed
coupling incidence, gap junction channels formed by connexin 26 [5]: does not significantly reduce
functional status of Panx1 hemichannels activated by mechanic stress ([3]; 100 nM): not inhibited
activity (unit currents) of the hemichannels formed by connexin 43 [6]: drastically inhibited
